# Patent publication US12146879B2, “Capacitive biosensor for identifying a microorganism or determining antibiotic susceptibility” (priority 2016, dated 2024)
# Columns and labels:
# E. coli [1] = assay: Susceptibility measurement by type of antibiotic with capacitive biosensor (E. coli-specific aptamer); type: cell-based; settings: antibiotic 100 ng/ml, 37° C., 6 hours, FIG. 8
# Protocol: The susceptibility inspection for antibiotics was performed, after identifying an E. coli using the capacitive biosensor manufactured by treating E. coli-specific aptamer in Experimental Example 2 on the substrate manufactured according to Manufacturing Example 2.
# PBS was treated as a control, each treatment was treated with cephalothin, Gentamicin, Ciprofloxacin and chloramphenicol at a concentration of 100 ng/ml, the change in capacitance with time was measured for 6 hours in an incubator at 37° C.
# Staphylococcus aureus [2] = settings: reference value given in the method; cited from earlier work
# E. coli [3] = settings: reference value given in the method; cited from earlier work
# [4] = system: Ampicillin-resistant E. coli; assay: Susceptibility of antibiotic-resistant bacterium by real-time capacitance; type: cell-based; settings: Tetracycline 2 μg/ml, Gentamicin 1 μg/ml, Ampicillin 8 μg/ml; FIG. 11 (b)
# Protocol: (§1) In addition, Tetracycline-resistant E. coli or Ampicillin-resistant E. coli (10^5 cells/ml) was treated with a capacitive biosensor and grown at 37° C. for 2 hours, and was then treated with Tetracycline at a concentration of 2 μg/ml, Gentamicin at a concentration of 1 μg/ml, and Ampicillin at a concentration of 8 μg/ml, respectively. The degree of susceptibility was determined based on the results of the capacitance monitored in real time.
# [5] = system: Tetracycline-resistant E. coli; assay: as above; type: cell-based; settings: Tetracycline 2 μg/ml, Gentamicin 1 μg/ml, Ampicillin 8 μg/ml; FIG. 11 (a)
# Protocol: as §1
# E. coli [6] = assay: Minimum inhibitory concentration by real-time capacitance of capacitive biosensor; type: cell-based; settings: E. coli 10^5 cells/ml grown 2 hours at 37° C.
# Protocol: To determine the minimum inhibitory concentration of an antibiotic, E. coli (10^5 cells/ml) was treated with a capacitive biosensor and grown at 37° C. for 2 hours, and then treated with antibiotic ceftriaxone (MIC: ˜ 30 ng/ml) at concentrations of 100, 80, 60, 40 and 20 ng/ml, respectively. The degree of susceptibility was determined based on the results of the capacitance monitored in real time, and the minimum inhibitory concentration thereof was confirmed.
# (§2) In addition, E. coli (10^5 cells/ml) was treated with a capacitive biosensor and grown at 37° C. for 2 hours, and then treated with antibiotic Gentamicin (MIC: ˜ […]) 50, 5, 0.5, 0.05, and 0.005 μg/ml, respectively. The degree of susceptibility was determined based on the results of the capacitance monitored in real time, and the minimum inhibitory concentration thereof was confirmed.
# Staphylococcus aureus [7] = assay: as above; type: cell-based; settings: Staphylococcus aureus 10^5 cells/ml grown 2 hours at 37° C.; 50, 5, 0.5, 0.05, 0.005 μg/ml; text prints 'this E. coli'
# Protocol: as §2, with “Staphylococcus aureus” for “E. coli”, “then was” for “then”
# Staphylococcus aureus [8] = assay: Identification of a microorganism: capacitance change of aptamer-fixed biosensor; type: binding; settings: about 2 hours, 37° C., FIG. 6
# Protocol: (§3) An experiment was conducted to confirm whether a microorganism could be identified using the biosensor produced according to Production Example 2.
# (§4) Particularly, each well was treated and fixed with an aptamer specific to E. coli, Acinetobacterbaumannii, Staphylococcus aureus or Enterococcus faecalis, and media (a control group or a control) not containing a microorganism, E. coli, Acinetobacterbaumannii, Staphylococcus aureus or Enterococcus faecalis were treated with a sensor, and then the change in capacitance was measured after about 2 hours in an incubator at 37° C.
# other microorganisms = assay: as above; type: binding; settings: about 2 hours, 37° C., FIG. 6
# Protocol: as §3, §4
# E. coli [9] = assay: as above; type: binding; settings: about 2 hours, 37° C., FIG. 6
# Protocol: as §3, §4
molecule,measurement,setting,value
CC(=O)OCC1=C(C(=O)O)N2C(=O)[C@@H](NC(=O)Cc3cccs3)[C@H]2SC1 [cephalothin],change in capacitance after the addition of antibiotics,E. coli [1],increase in capacitance
same,susceptibility or resistance of the bacterium to the antibiotic,E. coli [1],resistance (tolerance)
Gentamicin,change in capacitance after the addition of antibiotics,E. coli [1],decrease in capacitance
same,susceptibility or resistance of the bacterium to the antibiotic,E. coli [1],susceptibility
same,MIC (stated with the antibiotic),Staphylococcus aureus [2],0.5 µg/mL
same,MIC (stated with the antibiotic),E. coli [3],0.5 µg/mL
same,change in capacitance value after antibiotic treatment,[4],decrease in capacitance value
same,change in capacitance value after antibiotic treatment,[5],decrease in capacitance value
same,minimum inhibitory concentration,"E. coli [6]; 50, 5, 0.5, 0.05, 0.005 μg/ml, FIG. 10",0.5 µg/mL
same,minimum inhibitory concentration,Staphylococcus aureus [7],0.5 µg/mL
CO/N=C(\C(=O)N[C@@H]1C(=O)N2C(C(=O)O)=C(CSc3nc(=O)c(=O)[nH]n3C)CS[C@H]12)c1csc(N)n1 [ceftriaxone],MIC (stated with the antibiotic),E. coli [3],~0.03 µg/mL
same,MIC,"E. coli [6]; Escherichia coli, 100, 80, 60, 40 and 20 ng/ml, FIG. 9",0.04 µg/mL
O=C(N[C@H](CO)[C@H](O)c1ccc([N+](=O)[O-])cc1)C(Cl)Cl [chloramphenicol],change in capacitance after the addition of antibiotics,E. coli [1],increase in capacitance
same,susceptibility or resistance of the bacterium to the antibiotic,E. coli [1],resistance (tolerance)
O=C(O)c1cn(C2CC2)c2cc(N3CCNCC3)c(F)cc2c1=O [Ciprofloxacin],change in capacitance after the addition of antibiotics,E. coli [1],decrease in capacitance
same,susceptibility or resistance of the bacterium to the antibiotic,E. coli [1],susceptibility
same,susceptibility or resistance of the bacterium to the antibiotic,E. coli [1]; listed as ciprofloxacin,high
"Staphylococcus aureus-specific aptamer: Staphylococcal aptamer, SEQ ID NO: 3, Genotech, Daejeon, Korea (nucleic acid, DNA, backbone and methylation of C not given here; deposited on substrate, further chemistry not fully specified) GCAATGGTACGGTACTTCCTCGGCACGTTCTCAGTAGCGCTCGCTGGTCATCCCACAGCTACGTCAAAAGTGCACGCTACTTTGCTAA",change in capacitance on treatment with Staphylococcus aureus,Staphylococcus aureus [8],large capacitance change
same,change in capacitance on treatment with other microorganisms,other microorganisms,did not occur significantly
"E. coli-specific aptamer: E. coli-specific aptamer, SEQ ID NO: 1, Genotech, Daejeon, Korea (nucleic acid, DNA, backbone and methylation of C not given here; deposited on substrate, further chemistry not fully specified) GCAATGGTACGGTACTTCCCCATGAGTGTTGTGAAATGTTGGGACACTAGGTGGCATAGAGCCGCAAAAGTGCACGCTACTTTGCTAA",change in capacitance on treatment with E. coli,E. coli [9],significantly increased
same,change in capacitance on treatment with other microorganisms,other microorganisms,did not occur significantly
